Literature values as cited in patent publication US20230149278A1, “METHOD FOR DYEING KERATIN MATERIAL, COMPRISING THE USE OF AN ORGANOSILICON COMPOUND, A POLYSACCHARIDE, A COLORING COMPOUND AND A POST-TREATMENT AGENT” (Henkel AG & Co. KGaA, priority 2020, published 2023).

Details: for solubility in water: 25° C.

solubility in water	solubility in water (in words) (water at 25° C.)	Molecule
	readily soluble	O=C(O)C1=NN(c2ccc(S(=O)(=O)O)cc2)C(=O)C1N=Nc1ccc(S(=O)(=O)O)cc1 (stereo not drawn) [Acid Yellow 23, 4,5-dihydro-5-oxo-1-(4-sulfophenyl)-4-((4-sulfophenyl)azo)-1H-pyrazole-3-carboxylic acid]
more than 20 wt. %		CCN(Cc1cccc(S(=O)(=O)[O-])c1)c1ccc(C(=C2C=CC(=[N+](CC)Cc3cccc(S(=O)(=O)[O-])c3)C=C2)c2ccccc2S(=O)(=O)[O-])cc1.[Na+].[Na+] [Acid Blue 9]
20 g/L		mixture of the sodium salts of mono- and disulfonic acids of 2-(2-quinolyl)-1H-indene-1,3(2H)-dione [Acid Yellow 3]
2,5 g/L		Nc1cc(S(=O)(=O)[O-])cc2cc(S(=O)(=O)[O-])c(N=Nc3ccccc3)c(O)c12.[Na+].[Na+] [Acid Red 33, disodium salt of 5-amino-4-hydroxy-3-(phenylazo)-naphthalene-2,7-disulphonate]

Molecule	solubility in water	solubility in water (in words) (water at 25° C.)
O=S(=O)([O-])c1ccc(N=Nc2c(O)ccc3ccccc23)cc1.[Na+] [Acid Orange 7, sodium salt of 4-[(2-hydroxy-1-naphthyl)azo]benzene sulfonate]	more than 7 g/L	
O=C([O-])c1c(Cl)c(Cl)c(Cl)c(Cl)c1-c1c2c(Br)cc(=O)c(Br)c-2oc2c(Br)c(O)cc(Br)c12.O=C([O-])c1c(Cl)c(Cl)c(Cl)c(Cl)c1-c1c2c(Br)cc(=O)c(Br)c-2oc2c(Br)c(O)cc(Br)c12.[Na+].[Na+] [Acid Red 92, disodium salt of 3,4,5,6-tetrachloro-2-(1,4,5,8-tetrabromo-6-hydroxy-3-oxoxanthen-9-yl)benzoic acid]	greater than 10 g/L	
